{"source": "ChEMBL document CHEMBL3832034", "format_in_all_cases": "ADME, organism-based", "key": {"[1]": {"system": "Homo sapiens", "assay": "(§1) Pharmacokinetic parameters for Lidocaine, and Prilocaine after topical administration of EMLA cream intact skin on the lateral thighs, vaginal fornices and penile skin of subjects", "design": "dose 1.5 g, route topical", "details": "in vivo, topical_or_ocular; for C / Tmax: route topical"}, "[2]": {"assay": "as §1", "design": "dose 1.5 g, route topical", "details": "human, in vivo, topical or ocular, 1.5 g; dosed compound id 50, dosed compound name PRILOCAINE, regimen Single dose, study dosing duration 3 hours, tissue Plasma"}, "[3]": {"assay": "Evaluation of pharmacokinetic parameters for Lidocaine, and Prilocaine following intravenous (IV) administration of Lidocaine or application of a cream.", "details": "human, dosed compound id 50, dosed compound name PRILOCAINE, tissue Plasma"}, "[4]": {"details": "dose 0.5 to 3.3 g, dosed compound id 50, dosed compound name PRILOCAINE, gender female, regimen Single dose, study dosing duration 10 to 60 minutes, tissue Plasma"}}, "note": "Several values for one entry are separate records, joined by “and”; a condition that tells them apart may be missing. Equal values may be shown once.", "data": [{"smiles": "CCN(CC)CC(=O)Nc1c(C)cccc1C", "note": "[LIDOCAINE]", "values": [{"measurement": "Cmax", "setting": "[1]", "value": "0.12 µg/mL and 0.28 µg/mL"}]}, {"smiles": "CCCNC(C)C(=O)Nc1ccccc1C", "note": "(configuration not stated) [PRILOCAINE]", "values": [{"measurement": "Cmax", "setting": "[2]", "value": 70, "unit": "ng/mL"}, {"measurement": "C", "setting": "[1]; [4]", "value": "40 to 346", "unit": "ng/mL"}, {"measurement": "Tmax", "setting": "[1]; [4]", "value": "0.35 to 1.58", "unit": "h"}, {"measurement": "C", "setting": "[1]; dose 0.5 to 3.3 g, dosed compound id 50, dosed compound name PRILOCAINE, gender male, regimen Single dose, study dosing duration 15 minutes, tissue Plasma", "value": "2.5 to 7", "unit": "ng/mL"}, {"measurement": "Tmax", "setting": "[1]; dose 1.5 g, dosed compound id 50, dosed compound name PRILOCAINE, regimen Single dose, study dosing duration 3 hours, tissue Plasma", "value": 4, "unit": "h"}, {"measurement": "Tmax", "setting": "[1]; dose 1.5 g, dosed compound id 50, dosed compound name PRILOCAINE, regimen Single dose, study dosing duration 24 hours, tissue Plasma", "value": 10, "unit": "h"}, {"measurement": "Cmax", "setting": "[1]; dosed compound id 50, dosed compound name PRILOCAINE, regimen Single dose, study dosing duration 24 hours, tissue Plasma", "value": 0.14, "unit": "µg/mL"}, {"measurement": "clearance", "setting": "[3]; in vivo, route iv", "value": 38, "unit": "mL/min/kg"}, {"measurement": "half-life", "setting": "[3]; in vivo, route iv", "value": 70, "unit": "min"}, {"measurement": "Vd", "setting": "[3]; in vivo, route iv, read-out: Vss", "value": 2.6, "unit": "L/kg"}, {"measurement": "fraction unbound", "setting": "[3]; topical or ocular, route topical, read-out: Protein binding (converted)", "value": 0.45}]}]}
